# Laboratory results as given in patent US10168342B2, “Lipid probes and uses thereof” (THE SCRIPPS RESEARCH INSTITUTE, priority 2015, dated 2019).
# Experiments:
# [1] = biological target: T1, A-DA lipid probe targets in Neuro2a cells (Mus musculus, UniProt P22437); experiment: In situ competitive SILAC profiling with A-DA probe in Neuro2a cells; type: cell-based; details: Neuro2a cells, A-DA 5 μM, drug 25 μM
# T1 construct: endogenous in cells; host or cells: Neuro2a
# [2] = test system: membrane and soluble proteins of HEK293T cells; experiment: Gel-based profiling of lipid probe labeling in HEK293T cells; type: cell-based, human; details: probe 20 μM, 30 min, UV
# Description: For gel-based analysis, after sonicating the membrane pellets in cold DPBS, protein concentrations of each fraction were determined using the BCA protein assay (Bio-Rad) and a microplate reader (Tecan, Infinite F500).
# Proteomes were diluted to 1.0 mg/mL (total protein concentration) and 50 μL of each proteome was transferred to separate wells in a 96-well plate.
# In some instances, within the arachidonoyl subset of probes, fatty acid- and fatty acid amide-based probes (AA-DA and AEA-DA, respectively) were synthesized and their potential were evaluated to bind and covalently modify (under UV-light exposure) proteins in human cells by gel-based profiling. For example, HEK293T cells were treated with probe (AA-DA or AEA-DA; 20 μM, 30 min), irradiated with UV light (10 min, 4° C.), lysed and the cell proteomes fractionated into membrane and soluble components by centrifugation prior to conjugation to a fluorescent reporter tag (Rh—N3) using CuAAC (FIG. 4A). […] In some instances, this was a consequence of rapid sequestration of this probe into membranes through its metabolic incorporation into phospho/neutral-lipids or into lipidated proteins. […] In some instances, the labeling profile of the AEA-DA probe reflected a limited capacity of the cell to metabolize this amidated probe, which undergoes enzyme-mediated hydrolysis prior to incorporation into other lipids or proteins.
# [3] = biological target: T2, A-DA lipid probe targets in Neuro2a cells (Mus musculus, UniProt P45377); experiment: In situ competitive SILAC profiling with A-DA probe in Neuro2a cells; type: cell-based; details: Neuro2A cells, A-DA 5 μM, drug 25 μM
# T2 construct: endogenous in cells; host or cells: Neuro2a
# [4] = test system: PGF2α-EA formation in PMA-stimulated A549 cells; experiment: Oxidative metabolism of AEA in A549 cells (prostamide formation); type: cell-based, human; details: MJN228, KML110 5 and 25 μM, others 25 μM, AEA 20 μM
# Description: The media from the PMA-stimulated cells was removed and cells were washed with DPBS (2×3 mL) before adding freshly prepared media solutions containing vehicle or compound (2 mL/plate). After incubating for 30 min at 37° C., a solution of BHT-stabilized AEA (60 μM AEA; 60 μM BHT) in the same media was added to the cells (1.0 mL/plate) and incubated for 1 h. The media from the cells was then transferred to glass vials containing MS internal standards [PGE2-EA-d4 (25 pmol)], centrifuged (1,500×g, 5 min) to remove detached cells and then loaded onto pre-equilibrated reversed phase SPE cartridges (Phenomenex, Strata-X 33 μm, 60 mg/3 mL). After washing cartridges with 5% MeOH/H2O (3 mL), prostamides were eluted with MeOH (1.0 mL) and the eluent was concentrated under a stream of N2. Concentrated samples were stored at −80° C. until the day of analysis when they were reconstituted in Mobile Phase A [100 μL, 30% CH3CN in H2O (0.1% AcOH, 5.0 mM NH4OAc)].
# Media extracts were analyzed by LC/MS/MS with LC separation performed on a Kinetex reversed phase C18 column (50×4.6 mm, 2.6 μm particle size, 100Å). Mobile phase A was composed of 30% (v/v) CH3CN in H2O and Mobile phase B was composed of 50% (v/v) CH3CN in i-PrOH. Both mobile phases also contained 0.1% AcOH and NH4OAc (5 mM) to facilitate ionization and LC separation. […]
# MS analysis of prostamides was performed on an Agilent 6460 Triple Quadrupole LC/MS System with operating conditions as follows: gas temperature (300° C.); gas flow (9 L·min^−1); nebulizer (45 psi); sheath gas temperature (300° C.); sheath gas flow (12 L·min^−1); positive and negative capillary voltage (3.5 kV). Analysis was achieved using multiple reaction monitoring with precursor to product ion transitions, optimized collision energies (CE) as listed below and prostamide quantification was achieved by normalized of analyte peaks relative to a deuterated prostamide internal standard (PGE2-EA-d4) to account for differences in extraction efficiency. […]
# [5] = biological target: T3, A-DA lipid probe targets in A549 cells (Homo sapiens, UniProt P35354); experiment: In situ competitive SILAC profiling with A-DA probe in (PMA-stimulated) A549 cells; details: PMA-stimulated A549 cells, A-DA 5 μM, drug 25 μM
# T3 sequence (P35354 18-604): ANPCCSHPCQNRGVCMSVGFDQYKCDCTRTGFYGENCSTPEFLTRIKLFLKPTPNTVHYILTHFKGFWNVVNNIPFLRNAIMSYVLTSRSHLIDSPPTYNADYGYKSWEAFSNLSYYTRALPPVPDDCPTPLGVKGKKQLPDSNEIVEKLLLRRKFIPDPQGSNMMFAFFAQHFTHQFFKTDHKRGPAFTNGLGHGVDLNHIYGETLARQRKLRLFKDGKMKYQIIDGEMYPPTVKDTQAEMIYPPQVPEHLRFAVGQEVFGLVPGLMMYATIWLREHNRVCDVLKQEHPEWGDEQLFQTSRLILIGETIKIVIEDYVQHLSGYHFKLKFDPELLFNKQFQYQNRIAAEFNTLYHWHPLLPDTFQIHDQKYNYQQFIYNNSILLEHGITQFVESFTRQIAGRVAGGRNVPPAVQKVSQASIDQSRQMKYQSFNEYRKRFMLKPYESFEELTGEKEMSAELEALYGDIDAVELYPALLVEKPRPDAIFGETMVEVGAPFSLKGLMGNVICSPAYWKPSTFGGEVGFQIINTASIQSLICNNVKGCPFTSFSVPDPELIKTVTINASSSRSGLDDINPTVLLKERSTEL
# [6] = biological target: A-DA lipid probe targets in A549 cells (Homo sapiens, UniProt P07093); experiment: as above; details: protein SERPINE2 (P07093); A549 cells; competitor 25 μM
# [7] = biological target: T4, A-DA lipid probe targets in A549 cells (Homo sapiens, UniProt Q9UH99); experiment: as above; details: protein SUN2 (Q9UH99); A549 cells; competitor 25 μM
# T4 sequence (Q9UH99 1-717): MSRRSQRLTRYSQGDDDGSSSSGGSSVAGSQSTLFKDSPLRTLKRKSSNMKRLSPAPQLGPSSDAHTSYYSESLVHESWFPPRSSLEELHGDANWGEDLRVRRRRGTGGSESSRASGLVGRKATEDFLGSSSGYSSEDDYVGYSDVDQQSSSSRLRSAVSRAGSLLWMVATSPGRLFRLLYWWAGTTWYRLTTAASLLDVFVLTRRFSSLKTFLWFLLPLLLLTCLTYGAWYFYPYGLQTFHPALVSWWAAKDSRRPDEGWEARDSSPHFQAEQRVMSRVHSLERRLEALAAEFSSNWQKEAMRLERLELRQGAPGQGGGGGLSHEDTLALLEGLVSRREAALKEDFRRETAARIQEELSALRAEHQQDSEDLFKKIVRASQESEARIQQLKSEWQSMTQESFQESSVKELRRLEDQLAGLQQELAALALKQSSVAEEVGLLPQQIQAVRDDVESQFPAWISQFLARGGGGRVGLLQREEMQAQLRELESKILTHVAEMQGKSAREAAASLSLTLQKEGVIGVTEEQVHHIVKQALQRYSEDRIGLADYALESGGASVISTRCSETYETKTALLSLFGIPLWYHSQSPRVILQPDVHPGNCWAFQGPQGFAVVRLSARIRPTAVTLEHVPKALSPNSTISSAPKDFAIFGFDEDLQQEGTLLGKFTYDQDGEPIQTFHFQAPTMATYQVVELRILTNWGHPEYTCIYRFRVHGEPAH
# [8] = test system: sterol-binding proteins in HeLa cells; experiment: SILAC MS-based profiling of sterol-binding proteins in HeLa cells; type: cell-based, human; details: probe-enriched proteins
# Description: To facilitate delivery to cells, all sterols and steroids, including the sterol probes, were complexed in aqueous solution to mβCD (Sigma-Aldrich) for at least twelve hours before dilution in culture medium for labeling. The desired amount of sterol or steroid was added to a saturated aqueous mβCD (38 mM) solution to generate a concentrated stock, and agitated at room temperature overnight; solutions were filtered prior to use the following day. Aqueous stock solutions of the trans probe were prepared at 2 mM; the cis and epi probes were prepared at 1.2 mM; cholesterol and other sterols for competition were prepared at 4 mM; steroids were prepared at 5 mM. […]
# [9] = test system: sterol-binding proteins in HeLa cells; experiment: Gel-based profiling of sterol-binding proteins in HeLa cells; type: cell-based, human; details: 1-20 μM probe
# Description: HeLa cells were grown at 37° C. under a humidified 5% CO2 atmosphere, in a culture medium consisting of high-glucose DMEM (HyClone) supplemented with 10% fetal bovine serum (FBS; Gemini) and penicillin, streptomycin, and glutamine (Cellgro; PSQ). For SILAC experiments, the culture medium was replaced with SILAC DMEM (Thermo) supplemented instead with 10% dialyzed FBS, PSQ, and 100 μg/ml [^13C6, ^15N4] L-arginine-HCl and [^13C6, ^15N2] L-lysine-HCl (Sigma-Aldrich). Cells were passaged at least six times in isotopically labeled media before being utilized for analysis by LC-MS/MS.
# To facilitate delivery to cells, all sterols and steroids, including the sterol probes, were complexed in aqueous solution to mβCD (Sigma-Aldrich) for at least twelve hours before dilution in culture medium for labeling. The desired amount of sterol or steroid was added to a saturated aqueous mβCD (38 mM) solution to generate a concentrated stock, and agitated at room temperature overnight; solutions were filtered prior to use the following day. […]
# Frozen cell pellets were thawed on ice and lysed in PBS by sonication. Protein concentrations of cell lysates were determined using the BCA protein assay on a microplate reader. […] After 1 hour, samples were mixed with SDS sample loading buffer and loaded without boiling on a 10% SDS-PAGE gel, separated, and imaged using a Hitachi FMBIO-II flatbed fluorescence scanner.
# T1 sequence (P22437 27-602): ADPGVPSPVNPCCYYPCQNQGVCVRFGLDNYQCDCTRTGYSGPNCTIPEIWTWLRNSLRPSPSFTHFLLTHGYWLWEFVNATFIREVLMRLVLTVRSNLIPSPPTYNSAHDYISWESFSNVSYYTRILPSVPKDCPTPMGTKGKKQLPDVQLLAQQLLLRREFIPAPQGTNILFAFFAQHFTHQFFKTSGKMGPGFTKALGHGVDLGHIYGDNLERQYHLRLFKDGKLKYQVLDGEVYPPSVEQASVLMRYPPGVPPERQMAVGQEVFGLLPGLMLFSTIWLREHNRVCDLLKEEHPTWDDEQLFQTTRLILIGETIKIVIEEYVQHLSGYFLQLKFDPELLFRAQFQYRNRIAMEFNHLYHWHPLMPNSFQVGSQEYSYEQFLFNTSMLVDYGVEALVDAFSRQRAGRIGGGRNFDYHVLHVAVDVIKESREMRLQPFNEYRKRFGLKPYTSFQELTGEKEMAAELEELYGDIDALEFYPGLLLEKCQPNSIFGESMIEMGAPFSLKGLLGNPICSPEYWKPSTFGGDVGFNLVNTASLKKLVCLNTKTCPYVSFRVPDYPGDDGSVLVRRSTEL
# T2 sequence (P45377 whole entry): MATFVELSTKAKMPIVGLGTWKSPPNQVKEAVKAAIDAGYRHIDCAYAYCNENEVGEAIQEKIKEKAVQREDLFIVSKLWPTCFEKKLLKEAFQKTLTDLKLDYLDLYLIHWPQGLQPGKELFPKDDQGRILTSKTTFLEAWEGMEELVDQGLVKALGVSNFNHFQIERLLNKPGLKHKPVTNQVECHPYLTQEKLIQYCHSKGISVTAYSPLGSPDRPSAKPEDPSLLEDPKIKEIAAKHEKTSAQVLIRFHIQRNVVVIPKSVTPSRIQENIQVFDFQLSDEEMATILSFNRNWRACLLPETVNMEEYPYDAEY
# Chain of A-DA lipid probe targets in A549 cells (Homo sapiens, UniProt P07093) (P07093 20-398): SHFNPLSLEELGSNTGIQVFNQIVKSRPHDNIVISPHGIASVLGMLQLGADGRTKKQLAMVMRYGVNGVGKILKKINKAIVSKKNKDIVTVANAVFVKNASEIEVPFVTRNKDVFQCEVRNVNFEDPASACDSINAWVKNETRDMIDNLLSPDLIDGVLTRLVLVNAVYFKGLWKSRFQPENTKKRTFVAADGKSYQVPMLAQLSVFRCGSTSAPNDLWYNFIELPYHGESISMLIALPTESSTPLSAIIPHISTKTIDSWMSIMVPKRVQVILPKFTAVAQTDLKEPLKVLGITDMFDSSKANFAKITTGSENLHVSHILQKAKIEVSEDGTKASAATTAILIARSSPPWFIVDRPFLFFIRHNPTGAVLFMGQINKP
structure (smiles),measurement,setting,value
CC(C(=O)O)c1ccc(-c2ccccc2)c(F)c1 (racemic) [(±)-flurbiprofen],competition of A-DA labeling of PTGS1,[1],competitively blocked
"C#CCCCC1(CC/C=C\C/C=C\C/C=C\CCCC(=O)O)N=N1 [AA-DA, (5Z,8Z,11Z)-14-(3-(pent-4-yn-1-yl)-3H-diazirin-3-yl)tetradeca-5,8,11-trienoic acid]",protein labeling profile (membrane vs soluble),[2],almost exclusive labeling of membrane proteins
"CS(=O)(=O)c1ccc(C2=C(c3ccccc3)C(=O)OC2)cc1 [rofecoxib, reference compound]",A-DA labeling of AKR1B8,[3],reductions
same,conversion of exogenous AEA to PGF2α-EA,[4],blocked
same,competition of A-DA labeling of PTGS2,[5],disrupted
same,"SILAC ratio, A-DA competition",[6],1.1
same,"SILAC ratio, A-DA competition",[7],1.2
"C#CCCCCOC(=O)CC[C@@H](C)[C@H]1CCC2C3CC4(N=N4)[C@H]4C[C@@H](O)CC[C@]4(C)C3CC[C@@]21C (stereo partly drawn) [trans-sterol probe, (4R)-hex-5-yn-1-yl 4-((3S,5S,10R,13R,17R)-3-hydroxy-10,13-dimethyl-1,2,3,4,5,7,8,9,10,11,12,13,14,15,16,17-hexadecahydrospiro[cyclopenta[a]phenanthrene-6,3′-diazirin]-17-yl)pentanoate]",mean labeling intensity ratio trans/epi,[8]; standard deviation 1.2,2.1
same,mean labeling intensity ratio trans/cis,[8]; standard deviation=0.57,0.9
same,overall protein-labeling profile by gel,[9],stronger overall protein-labeling profiles
